Patent US11505521B2 (Biothea Pharma, Inc., priority 2018, dated 2022)
In brackets after ≈: the same amount, converted by molar mass. Read-outs that look alike come from different tables or passages of the source.

Key:
physchem [1] = settings: water; for Solubility: 25±2° C.
Method: (§1) The tests were conducted using Sartorius balances (Model SQP), a Thermo HPLC (UltiMate 3000 System, UV Wavelength: 205 nm), and Phenomenex Luna columns (5 μm C18 (2), 4.6×250 mm). The column temperature was 40° C. and the autosampler temperature was room temperature. The injection volume was 5 μL.
(§2) Mobile Phase A was prepared by weighing 4.0 g tetramethylammonium bisulfate (MERYER, Batch No. 77957139) and 1.1 sodium 1-heptasulfonate (Admas-beta, Batch No. P1343755), and transferring the materials to a flask. 2 mL of 0.1 mol/L EDTA solution (Brand: Sinopharm Chemical Reagent Co., Ltd., Batch No. 20150410) was added to the flask and the volume was adjusted to 950 mL using water. The solution was mixed and adjusted to a pH of 3.5 with 0.1N sodium hydroxide solution (Brand: Enox, Batch No. 20161201). Mobile Phase B was prepared using ethanol. The isocratic elution was used in a proportion of A/B of 85/15. The run time was 8 minutes.
A standard solution was used comprising 10 mg of the standard dissolved in 10 mL of water. The test solution solutions were prepared and water was added at 25±2° C. Every 5 minutes, the solution was sonicated for 30 seconds. The dissolution was observed within 30 minutes to make sure the solution was saturated. The solution was filtered through a 0.45 μm membrane and the solution was diluted to test.

physchem [2] = settings: n-octanol / pH 3.47 buffer
Method: as §1, §2
A hydrogen disodium phosphate solution was prepared by weighing 7.1 g of hydrogen disodium phosphate (Brand: Sinopharm Chemical Reagent Co., Ltd., Batch No. 20150910). A citric acid solution was prepared by weighing 5.25 g of hydrated citric acid (Brand: General-Reagent, Batch No. 5949-29-1) and dissolving it in 1000 mL of water. A pH 3.47 buffer solution was prepared by adjusting the pH of the hydrogen disodium phosphate solution to 3.47 with the citric acid solution. An n-octanol buffer solution was prepared by mixing 100 mL of n-octanol (Brand: Chinasun Specialty Products Co., Ltd., Batch No. 20160601) and 100 mL of the pH 3.47 buffer solution, vibrated for 24 hours, which sat for an hour to separate the n-octanol phase and the pH 3.47 buffer phase.
10 mg of the sample was dissolved in 10 mL of the saturated n-octanol solution and mixed completely. 10 mL of the saturated pH 3.47 buffer solution was added and vortexed at 3000 r/min for 1 hour. 1 mL of solution was pipetted from the n-octanol and pH 3.47 phase after an hour. A standard solution was prepared containing 1 mg/mL of the standard in diluent. An LOQ solution was prepared from about 0.1% of the standard solution. An n-octanol phase solution was diluted with 1 mL of methanol to test. The pH 3.47 phase solution was injected directly. The partition coefficient was calculated using the following formula:
[formula] wherein Co is the equilibrium concentration of solute in oil phase, and Cw is the equilibrium concentration of solute in water phase.

physchem [3] = assay: physchem
Method: The tests were conducted using Sartorius balances (Model SQP) and a potentiometric titrator (Brand: Methrom, Model No. 905 Titrando). 0.17 g of the sample was weighed and transferred into a 50 mL volumetric flask with the remainder of the volume comprising deonized water. The solution was mixed. The solution was titrated with a 0.1 mol/L NaOH solution using a pH indicator to indicate the end point.

[4] = water, 25° C.
Method: The sample was dissolved and diluted to the volume with water and mixed well. The sample was left in an oven at 25° C., and samples were collected at 0 hours, 24 hours, 48 hours, 72 hours, 96 hours, and 120 hours. The diluent (mobile phase) used for the study was prepared by mixing about 1.36 g of potassium dihydrogen orthophosphate and 1.74 g of dipotassium hydrogen orthophosphate in a 1000 mL volumetric flask, and adjusting the pH to 3.0 with orthophosphoric acid. The appearance and purity of the samples were tested.

[5] = 20 mg in 20 mL water, 25° C.
Method: The tests were conducted using Sartorius balances (Model SQP) and a pH meter (Brand: INESA, Model No. PHS-3E). 20 mg of the sample was weighed and transferred into a 20 mL volumetric flask with the remainder of the volume comprising water. The solution was mixed. The pH meter was calibrated with pH 4.0 and pH 6.8 standard buffer solutions at 25° C.

Row | Molecule | solubility at 30 min (physchem [1]; 25 °C, thermodynamic from solid) | LogP (physchem [2]; pH 3.47) | pKa (physchem [3]; deionized water) | Appearance ([4]; 0 hours) | Purity ([4]; 0 hours) | Appearance ([4]; 24 hours) | Purity ([4]; 24 hours) | Appearance ([4]; 48 hours) | Purity ([4]; 48 hours) | Appearance ([4]; 72 hours) | Purity ([4]; 72 hours) | Appearance ([4]; 96 hours) | Purity ([4]; 96 hours) | Appearance ([4]; 120 hours) | Purity ([4]; 120 hours) | Solubility (physchem [1]) | LogP (physchem [2]) | pKa (physchem [3]; titrated with 0.1 mol/L NaOH) | pH [5]
1 | CNC[C@H](O)c1ccc(O)c(O)c1 [epinephrine bitartrate] | 827 mg/mL | -2.95 | 4.2 | – | – | – | – | – | – | – | – | – | – | – | – | – | – | – | –
2 | CNC[C@H](O)c1ccc(O)c(O)c1 [epinephrine malonate] | – | – | – | Colorless liquid | 99.97% | Colorless liquid | 99.79% | Colorless liquid | 99.63% | Colorless liquid | 99.51% | Colorless liquid | 99.42% | Colorless liquid | 99.34% | 1142.7 mg/mL (≈ 6240 mM) | −3.00 | 5.47 | –
3 | epinephrine maleate | – | – | – | – | – | – | – | – | – | – | – | – | – | – | – | 82.7 mg/mL | −3.01 | 6.12 | 4.48
